For data set [1], the system named is Mycobacterium tuberculosis (strain H37RV). In words: In-vitro method for testing compounds against M. tuberculosis (resazurin growth inhibition, MIC). In kind it is cell-based. The note with it: MIC data representing IC90's, 7 days incubation, resazurin fluorescence. In general terms: Resazurin is reduced to fluorescent resorufin, in cell work by metabolically active cells.

In a further data set the test system is M. Smegmatis ATCC607. In words: In-vitro method for testing compounds for anti-bacterial activity against strain M. smegmatis ATCC607 (Alamar Blue growth inhibition). In kind it is cell-based. Particulars: M. smegmatis ATCC607, pIC50 = -logIC50, IC50 in M, 50% inhibitory concentration for bacterial growth, 48 hours incubation; for IC50: Mycolicibacterium smegmatis, ATCC607, 48 h, read-out: pIC50 (converted). The method in brief: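 About 250 CFU/well M. smegmatis ATCC607 in Mueller-Hinton broth exposed to five-fold serial compound dilutions, 48 h at 37 °C, humidified 5% CO2. Growth read by Alamar Blue fluorescence (ex 530/em 590 nm) after 2 h further incubation; % growth inhibition calculated.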

The mark [2] stands for this setting: Mycobacterium tuberculosis, H37RV, 168 h, read-out: MIC.

Converted amounts (≈) assume the structure as drawn. Where two headings read alike, the source gives them in different places.

A word on the melting point: it is the temperature of the solid-liquid transition. What is called pIC50 is the IC50 on a negative log10 scale, so that one unit is a factor of ten. For `CCOc1nc2ccc(Br)cc2cc1C(c1ccccc1)C(O)(CCN(C)C)c1ccccc1` (stereo not shown) [Compound 5], the melting point was found to be 162 °C. The MIC in data set [1] is listed as 0.33 microgram/ml. The compound further came in with a pIC50 in the data set with M. Smegmatis ATCC607 of 7.8.

`CN(C)CCC(O)(c1ccccc1)C(c1ccccc1)c1cnc2ccc(Br)cc2c1` (stereo not shown) [Compound 7]: the melting point amounted to 98 °C. The MIC in data set [1] was 47.54 microgram/ml. The compound further showed a pIC50 with M. Smegmatis ATCC607 of 4.6.

As to `CN(C)CCC(O)(c1ccccc1)C(c1ccccc1)c1cnc2ccc(Br)cc2c1` (stereo not shown) [Compound 8], the melting point came out at 180 °C. Also, the MIC in data set [1] (setting [2]) came to 23.8 µg/mL (≈ 50.1 µM). Also, the pIC50 in the data set on M. Smegmatis ATCC607 is 5.7.

The compound `COc1nc2ccc(Br)cc2cc1C(c1ccccc1)C(O)(CCN)c1ccccc1` (stereo not shown) [Compound 9] displayed a melting point of 204 °C. For the same compound, the MIC in data set [1] is 37.92 microgram/ml. In the data set on M. Smegmatis ATCC607, this compound yielded a negative logarithm of the IC50 (pIC50) of 4.5.

`COc1nc2ccc(Br)cc2cc1C(c1ccccc1)C(O)(CC[N+](C)(C)C)c1ccccc1.[I-]` (stereo not shown) [Compound 10] had a melting point of 198 °C. Also, the MIC in data set [1] (setting [2]) was determined as 10.3 µg/mL. Also, the IC50 with M. Smegmatis ATCC607 is 2510 nM.

In the case of `COc1nc2ccc(Br)cc2cc1C(c1ccccc1)C(O)(CC[N+](C)(C)[O-])c1ccccc1` (stereo not shown) [Compound 11], the melting point worked out at 208 °C. The MIC in data set [1] (setting [2]) was determined as 41.4 µg/mL (≈ 79.4 µM). In the data set on M. Smegmatis ATCC607, the IC50 was 25100 nM.

`COc1nc2ccc(Br)cc2cc1C(c1ccccc1)C(O)(CCN)c1ccccc1` (stereo not shown) [Compound 44]: in data set [1], the MIC worked out at 6.01 microgram/ml. Further, in the data set with M. Smegmatis ATCC607, the pIC50 is 5.9.

On to `COc1nc2ccc(Br)cc2cc1C(c1ccccc1)C(O)(CCN1CCCCC1)c1ccccc1` (stereo not shown) [Compound 47], for which, in data set [1] (setting [2]), the MIC was 8.65 µg/mL (≈ 15.9 µM). The compound further had a pIC50 in the data set on M. Smegmatis ATCC607 of 6.5.

Regarding `COc1nc2ccc(Br)cc2cc1C(c1ccccc1)C(O)(CCN1CCCCC1)c1ccccc1` (stereo not shown) [Compound 48], the MIC in data set [1] is reported as 8.65 microgram/ml. In addition, the pIC50 in the data set with M. Smegmatis ATCC607 is given as 5.8.

As for `COc1nc2ccc(Br)cc2cc1C(c1ccccc1)C(O)(CCn1ccnc1)c1ccccc1` (stereo not shown) [Compound 49], the MIC in data set [1] (setting [2]) was 52.9 µg/mL (≈ 100 µM). Besides, the pIC50 in the data set with M. Smegmatis ATCC607 came out at 5.4.

In turn, `COc1nc2ccc(Br)cc2cc1C(c1ccccc1)C(O)(CCn1ccnc1)c1ccccc1` (stereo not shown) [Compound 50] gave an MIC in data set [1] of 52.85 microgram/ml. The compound also returned a pIC50 in the data set with M. Smegmatis ATCC607 of 5.0.

As for `CNCCC(O)(c1cccc2ccccc12)C(c1ccccc1)c1cc2cc(Br)ccc2nc1OC` (stereo not shown) [Compound 56], the MIC in data set [1] (setting [2]) turned out to be 43 µg/mL (≈ 79.4 µM). For the same compound, the IC50 in the data set on M. Smegmatis ATCC607 is 63.1 nM.

In the case of `COc1nc2ccc(Br)cc2cc1C(c1ccccc1)C(O)(CCN(C)C)c1cc(F)ccc1F` (stereo not shown) [Compound 67], the MIC in data set [1] worked out at 0.34 microgram/ml. In addition, the pIC50 with M. Smegmatis ATCC607 was 8.6.

In turn, `COc1nc2ccc(Br)cc2cc1C(c1ccc(C)cc1)C(O)(CCN(C)C)c1cccc2ccccc12` (stereo not shown) [Compound 71] came in with a melting point of 174 °C. The same compound returned an MIC in data set [1] of 0.14 microgram/ml. The compound also registered a pIC50 in the data set with M. Smegmatis ATCC607 of 8.5.

`COc1nc2ccc(Br)cc2cc1C(c1ccc(C)cc1)C(O)(CCN(C)C)c1cccc2ccccc12` (stereo not shown) [Compound 72] had a melting point of 178 °C. The compound further came in with an MIC in data set [1] of 3.59 microgram/ml. Also, the pIC50 with M. Smegmatis ATCC607 was 6.9.

For the compound `COc1nc2ccc(Br)cc2cc1C(c1ccccc1)C(O)(CC[N+](C)(C)[O-])c1cccc2ccccc12` (stereo not shown) [Compound 99], the melting point came out at 218 °C. In data set [1] (setting [2]), the MIC was determined as 9.06 µg/mL (≈ 15.9 µM). Moreover, the IC50 in the data set with M. Smegmatis ATCC607 is 12.6 nM.

`COc1nc2ccc(Br)cc2cc1C(c1ccccc1)C(O)(CCN(C)C)c1cccc(F)c1` (stereo not shown) [Compound 109] displayed an MIC in data set [1] of 0.33 microgram/ml. In the data set with M. Smegmatis ATCC607, this compound returned a negative logarithm of the IC50 (pIC50) of 8.2.

Turning to `COc1nc2ccc(Br)cc2cc1C(c1ccccc1)C(O)(CCN(C)C)c1cc(F)ccc1F` (stereo not shown) [Compound 110], the MIC in data set [1] is on record as 0.34 microgram/ml. Moreover, in the data set on M. Smegmatis ATCC607, the pIC50 is 8.5.

The compound `COc1nc2ccc(Br)cc2cc1C(c1ccccc1)C(O)(CCN(C)C)c1cc(F)ccc1F` (stereo not shown) [Compound 111] displayed an MIC in data set [1] of 1.71 microgram/ml. In addition, in the data set with M. Smegmatis ATCC607, the pIC50 is 6.4.

On to `COc1nc2ccc(Br)cc2cc1C(c1ccccc1)C(O)(CCN(C)C)c1cccc(F)c1F` (stereo not shown) [Compound 113], for which the melting point was 185 °C. Also, in data set [1], the MIC is recorded as 0.27 microgram/ml. In the data set on M. Smegmatis ATCC607, this compound came in with a pIC50 of 8.6.

As to `COc1nc2ccc(Br)cc2cc1C(c1ccccc1)C(O)(CCN(C)C)c1cccc(F)c1F` (stereo not shown) [Compound 114], the melting point amounted to 210 °C. The MIC in data set [1] came out at 43.01 microgram/ml. This compound also had a pIC50 in the data set with M. Smegmatis ATCC607 of 5.9.

In data set [1], `COc1nc2ccc(Br)cc2cc1C(c1ccccc1)C(O)(CCN(C)C)c1cc(F)cc(F)c1` (stereo not shown) [Compound 115] displayed an MIC of 0.07 microgram/ml. The compound further came in with a pIC50 in the data set on M. Smegmatis ATCC607 of 8.6.

`COc1nc2ccc(Br)cc2cc1C(c1ccccc1)C(O)(CCN(C)C)c1cc(F)cc(F)c1` (stereo not shown) [Compound 116] returned an MIC in data set [1] of 8.58 microgram/ml. Also, the pIC50 with M. Smegmatis ATCC607 is on record as 6.6.

In the case of `COc1nc2ccc(Br)cc2cc1C(c1ccccc1)C(O)(CCN(C)C)c1cc(F)cc(F)c1` (stereo not shown) [Compound 117], in data set [1], the MIC came out at 1.71 microgram/ml. Besides, in the data set with M. Smegmatis ATCC607, the pIC50 was found to be 6.7.

For the compound `COc1nc2ccc(Br)cc2cc1C(c1ccccc1)C(O)(CCN(C)C)c1cc(F)cc(F)c1` (stereo not shown) [Compound 118], the MIC in data set [1] is recorded as 0.01 microgram/ml. This compound also displayed a pIC50 in the data set on M. Smegmatis ATCC607 of 9.1.

Take `COc1nc2ccc(Br)cc2cc1C(c1ccccc1)C(O)(CCN1CCCCC1)c1ccc2ccccc2c1` (stereo not shown) [Compound 129]: the MIC in data set [1] (setting [2]) stood at 47.3 µg/mL (≈ 79.4 µM). The compound further displayed a pIC50 in the data set with M. Smegmatis ATCC607 of 4.7.

Turning to `CCN(C)CCC(O)(c1ccc2ccccc2c1)C(c1ccccc1)c1cc2cc(Br)ccc2nc1OC` (stereo not shown) [Compound 141], the MIC in data set [1] (setting [2]) worked out at 9.03 µg/mL (≈ 15.9 µM). In the data set on M. Smegmatis ATCC607, this compound returned a pIC50 of 7.3.

`CCN(C)CCC(O)(c1ccc2ccccc2c1)C(c1ccccc1)c1cc2cc(Br)ccc2nc1OC` (stereo not shown) [Compound 142] came in with an MIC in data set [1] of 9.03 microgram/ml. The same compound registered a pIC50 with M. Smegmatis ATCC607 of 6.2.

Turning to `COc1nc2ccc(Br)cc2cc1C(c1ccccc1)C(O)(CCN1CCCCC1)c1cccc2ccccc12` (stereo not shown) [Compound 145], the MIC in data set [1] (setting [2]) is 59.6 µg/mL (≈ 100 µM). For the same compound, the pIC50 with M. Smegmatis ATCC607 is on record as 5.3.

In turn, `COc1nc2ccc(Br)cc2cc1C(c1ccccc1)C(O)(CCN1CCCCC1)c1cccc2ccccc12` (stereo not shown) [Compound 146] yielded an MIC in data set [1] of 59.56 microgram/ml. Further, the pIC50 in the data set with M. Smegmatis ATCC607 amounted to 4.8.

In data set [1], `CCN(C)CCC(O)(c1cccc2ccccc12)C(c1ccccc1)c1cc2cc(Br)ccc2nc1OC` (stereo not shown) [Compound 147] gave an MIC of 11.36 microgram/ml. For the same compound, in the data set with M. Smegmatis ATCC607, the negative logarithm of the IC50 (pIC50) worked out at 7.4.

With `CCN(C)CCC(O)(c1cccc2ccccc12)C(c1ccccc1)c1cc2cc(Br)ccc2nc1OC` (stereo not shown) [Compound 148], the MIC in data set [1] amounted to 56.96 microgram/ml. In the data set on M. Smegmatis ATCC607, this compound came in with a pIC50 of 4.9.

As to `COc1nc2ccc(Br)cc2cc1C(c1ccccc1)C(O)(CCN1CCCCC1)c1ccc2cc(Br)ccc2c1` (stereo not shown) [Compound 155], in data set [1] (setting [2]), the MIC came to 67.5 µg/mL (≈ 100 µM). This compound gave a pIC50 with M. Smegmatis ATCC607 of 4.9.

In the case of `COc1nc2ccc(Br)cc2cc1C(c1ccccc1)C(O)(CCN1CCCCC1)c1ccc2cc(Br)ccc2c1` (stereo not shown) [Compound 166], the MIC in data set [1] is 67.45 microgram/ml. The same compound returned a pIC50 with M. Smegmatis ATCC607 of 4.1.

Turning to `COc1nc2ccc(Br)cc2cc1C(c1ccccc1)C(O)(CCN1CCCC1)c1ccc2ccccc2c1` (stereo not shown) [Compound 170], in data set [1] (setting [2]), the MIC came to 46.2 µg/mL (≈ 79.4 µM). For the same compound, the pIC50 in the data set on M. Smegmatis ATCC607 is given as 5.6.

Turning to `COc1nc2ccc(Br)cc2cc1C(c1ccccc1)C(O)(CCN1CCCC1)c1ccc2ccccc2c1` (stereo not shown) [Compound 171], the MIC in data set [1] is given as 46.19 microgram/ml. Moreover, the pIC50 in the data set on M. Smegmatis ATCC607 is recorded as 4.3.

For the compound `COc1nc2ccc(Br)cc2cc1C(c1ccccc1)C(O)(CCn1cncn1)c1cccc2ccccc12` (stereo not shown) [Compound 172], the MIC in data set [1] (setting [2]) worked out at 7.3 µg/mL (≈ 12.6 µM). Moreover, the IC50 in the data set on M. Smegmatis ATCC607 is 2000 nM.
